In assay [1] the target is HDAC1 enzyme (recombinant GST-HDAC1) (Homo sapiens (Human), UniProt Q13547). The experiment in a line: In vitro HDAC assay for determination of IC50 values (BIOMOL fluorescent-based HDAC activity assay). The class given is biochemical. Particulars: Flur de lys substrate, 2 h room temperature, read-out: IC50 (HDAC 1). How it is done: Biological Testing and Enzyme Assays Recombinant GST-HDAC1 Protein Expression and Purification
Human cDNA library was prepared using cultured SW620 cells. Amplification of human HDAC1 coding region from this cDNA library was cloned separately into the baculovirus expression pDEST20 vector (GATEWAY Cloning Technology, Invitrogen Pte Ltd). The pDEST20-HDAC1 construct was confirmed by DNA sequencing. Recombinant baculovirus was prepared using the Bac-To-Bac method following the manufacturer's instruction (Invitrogen Pte Ltd).
Expression of GST-HDAC1 was done by infecting SF9 cells (Invitrogen Pte Ltd) with pDEST20-HDAC1 baculovirus at MOI=1 for 48 h. Soluble cell lysate was incubated with pre-equilibrated Glutathione Sepharose 4B beads (Amersham) at 4° C. for 2 h. The beads were washed with PBS buffer for 3 times. The GST-HDAC1 protein was eluted by elution buffer containing 50 mM Tris, pH8.0, 150 mM NaCl, 1% Triton X-100 and 10 mM or 20 mM reduced Glutathione. The purified GST-HDAC1 protein was dialyzed with HDAC storage buffer containing 10 mM Tris, pH7.5, 100 mM NaCl and 3 mM MgCl2. 20% Glycerol was added to purified GST-HDAC1 protein before storage at −80° C.
In Vitro HDAC Assay for Determination of IC50 Values
The assay has been carried out in 96 well format and the BIOMOL fluorescent-based HDAC activity assay has been applied. […] Flur de lys Developer was added and the reaction was incubated for 10 min. Briefly, deacetylation of the substrate sensitizes it to the developer, which then generates a fluorophore. The fluorophore is excited with 360 nm light and the emitted light (460 nm) is detected on a fluorometric plate reader (Tecan Ultra Microplate detection system, Tecan Group Ltd.).
The analytical software, Prism 4.0 (GraphPad Software Inc) has been used to generate IC50 from a series of data.

Another assay concerns Colo205 cells. Description: Cell-based proliferation assay for determination of GI50 values (CyQUANT). Further details: species or system human. Particulars: Homo sapiens, COLO 205, 96 h treatment. On the procedure: Cell-Based Proliferation Assay for Determination of GI50 Values
Human cancer cell lines (e.g. Colo205) were obtained from ATCC. Colo205 cells were cultivated in RPMI 1640 containing 2 mM L-Glutamine, 5% FBS, 1.0 mM Na Pyruvate. Colo205 cells were seeded in 96-wells plate at 5000 cells per well. The plates were incubated at 37° C., 5% CO2, for 24 h. Cells were treated with compounds at various concentrations for 96 h. Cell growth was then monitored using CyQUANT® cell proliferation assay (Invitrogen Pte Ltd). Dose response curves were plotted to determine GI50 values for the compounds using XL-fit (ID Business Solution, Emeryville, Calif.). GI50 is defined as the concentration of compound required for 50% inhibition of cell growth.
The cellular or growth inhibition activity results of representative compounds are shown in Table 4 below (unit in the table is micromolar).

Where only a bound is given, the exact number is not on record here.

A word on the IC50: it is the concentration that inhibits the measured activity by half. One may read the GI50 as the concentration giving 50% growth inhibition.

HDAC1 enzyme (recombinant GST-HDAC1), sequence (Q13547 whole entry): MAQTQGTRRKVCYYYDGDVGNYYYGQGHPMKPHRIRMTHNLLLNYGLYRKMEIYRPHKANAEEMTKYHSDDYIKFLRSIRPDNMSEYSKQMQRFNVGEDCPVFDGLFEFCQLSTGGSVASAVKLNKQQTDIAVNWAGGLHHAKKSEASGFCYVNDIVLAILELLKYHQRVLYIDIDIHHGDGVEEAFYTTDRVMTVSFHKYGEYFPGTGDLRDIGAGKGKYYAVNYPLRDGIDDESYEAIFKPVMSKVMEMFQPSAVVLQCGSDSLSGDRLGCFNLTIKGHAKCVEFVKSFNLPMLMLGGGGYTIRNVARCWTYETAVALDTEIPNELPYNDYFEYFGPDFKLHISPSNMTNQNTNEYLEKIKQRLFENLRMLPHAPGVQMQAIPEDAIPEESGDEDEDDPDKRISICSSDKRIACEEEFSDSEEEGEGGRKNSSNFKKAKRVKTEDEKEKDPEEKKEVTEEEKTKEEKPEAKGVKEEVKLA

In the case of `COCCNc1c(CC(C)CC(C)(C)C)nc2c(/C=C/C(=O)NO)cccn12` (centres unmarked) [Compound 16, (E)-N-hydroxy-3-(3-(2-methoxyethylamino)-2-(2,4,4-trimethylpentyl)imidazo[1,2-a]pyridin-8-yl)acrylamide], in assay [1], the IC50 was > 10000 nM. In the assay with Colo205 cells, this molecule displayed a 50% growth inhibitory concentration (GI50) of 20000 nM.
Regarding `CCCCCc1nc2cc(/C=C/C(=O)NO)ccn2c1NCCOC` [Compound 17, (E)-N-hydroxy-3-(3-(2-methoxyethylamino)-2-pentylimidazo[1,2-a]pyridin-7-yl)acrylamide], the IC50 in assay [1] was 300 nM. The same molecule returned a concentration for 50% growth inhibition (GI50) with Colo205 cells of 9900 nM.
Regarding `CCCCCCc1nc2ccc(/C=C/C(=O)NO)cn2c1NCCC(=O)NCC` [Compound 18, (E)-3-(3-(3-(ethylamino)-3-oxopropylamino)-2-hexylimidazo[1,2-a]pyridin-6-yl)-N-hydroxyacrylamide], the IC50 in assay [1] was 630 nM. Further, the concentration for 50% growth inhibition (GI50) in the assay on Colo205 cells worked out at 12000 nM.
`CCCCCCc1nc2ccc(/C=C/C(=O)NO)cn2c1NCCC(=O)NCCN(C)C` [Compound 19, (E)-3-(3-(3-(2-(dimethylamino)ethylamino)-3-oxopropylamino)-2-hexylimidazo[1,2-a]pyridin-6-yl)-N-hydroxyacrylamide]: the concentration for half-maximal inhibition (IC50) in assay [1] is 780 nM. In the assay with Colo205 cells, this molecule had a GI50 of 24000 nM.
Take `CCCCCCc1nc2cc(/C=C/C(=O)NO)ccn2c1NCCC(=O)NCCN(C)C` [Compound 20, 3-{3-[2-(2-Dimethylamino-ethylcarbamoyl)-ethylamino]-2-hexyl-imidazo[1,2-a]pyridin-7-yl}-N-hydroxy-acrylamide]: the IC50 in assay [1] is 99 nM. Also, in the assay with Colo205 cells, the GI50 stood at 28000 nM.
Take `CCCCCCc1nc2cc(/C=C/C(=O)NO)ccn2c1NCCC(=O)NCCCC` [Compound 21, 3-[3-(2-Butylcarbamoyl-ethylamino)-2-hexyl-imidazo[1,2-a]pyridin-7-yl]-N-hydroxy-acrylamide]: the IC50 in assay [1] was 130 nM. In the assay on Colo205 cells, this molecule registered a GI50 of 13000 nM.
As to `CCCCCCc1nc2cc(C=CC(=O)NO)ccn2c1NCCC(=O)NC(C)(C)C` [Compound 22, 3-[3-(2-tert-Butylcarbamoyl-ethylamino)-2-hexyl-imidazo[1,2-a]pyridin-7-yl]-N-hydroxy-acrylamide], the 50% inhibitory concentration (IC50) in assay [1] worked out at 140 nM. This molecule also displayed a GI50 with Colo205 cells of 19000 nM.
Regarding `CCCCCCc1nc2cc(/C=C/C(=O)NO)ccn2c1NCCC(=O)NCC(F)(F)F` [Compound 23, 3-{2-Hexyl-3-[2-(2,2,2-trifluoro-ethylcarbamoyl)-ethylamino]-imidazo[1,2-a]pyridin-7-yl}-N-hydroxy-acrylamide], the IC50 in assay [1] turned out to be 160 nM. The molecule further showed a GI50 in the assay on Colo205 cells of 15000 nM.
Consider `CCCCCCc1nc2cc(/C=C/C(=O)NO)ccn2c1NCCC(=O)NCCOC` [Compound 24, 3-{2-Hexyl-3-[2-(2-methoxy-ethylcarbamoyl)-ethylamino]-imidazo[1,2-a]pyridin-7-yl}-N-hydroxy-acrylamide], for which the IC50 in assay [1] was determined as 130 nM. Besides, the 50% growth inhibitory concentration (GI50) with Colo205 cells amounted to 40000 nM.
On to `CCCCCCc1nc2cc(/C=C/C(=O)NO)ccn2c1NCCC(=O)NCCSC` [Compound 25, 3-{2-Hexyl-3-[2-(2-methylsulfanyl-ethylcarbamoyl)-ethylamino]-imidazo[1,2-a]pyridin-7-yl}-N-hydroxy-acrylamide], for which the IC50 in assay [1] was determined as 73 nM. The same molecule displayed a concentration for 50% growth inhibition (GI50) with Colo205 cells of 2100 nM.
Regarding `C#CCNC(=O)CCNc1c(CCCCCC)nc2cc(/C=C/C(=O)NO)ccn12` [Compound 26, 3-[2-Hexyl-3-(2-prop-2-ynylcarbamoyl-ethylamino)-imidazo[1,2-a]pyridin-7-yl]-N-hydroxy-acrylamide], the IC50 in assay [1] is 140 nM. In the assay on Colo205 cells, this molecule registered a GI50 of 7900 nM.
Taken in the same sequence, the figures for `CCCCCCc1nc2cc(/C=C/C(=O)NO)ccn2c1NCCC(=O)NC(CO)C(C)C` (centres unmarked) [Compound 27, 3-{2-Hexyl-3-[2-(1-hydroxymethyl-2-methyl-propylcarbamoyl)-ethylamino]-imidazo[1,2-a]pyridin-7-yl}-N-hydroxy-acrylamide] were 180 nM and 8500 nM.
As for `CCCCCCc1nc2cc(/C=C/C(=O)NO)ccn2c1NCCC(=O)NCCN(CC)CC` [Compound 28, 3-{3-[2-(2-Diethylamino-ethylcarbamoyl)-ethylamino]-2-hexyl-imidazo[1,2-a]pyridin-7-yl}-N-hydroxy-acrylamide], in assay [1], the IC50 was 110 nM. In the assay with Colo205 cells, this molecule showed a GI50 of 7300 nM.
Regarding `CCCCCCc1nc2cc(/C=C/C(=O)NO)ccn2c1NCCC(=O)NCC` [Compound 29, 3-[3-(2-Ethylcarbamoyl-ethylamino)-2-hexyl-imidazo[1,2-a]pyridin-7-yl]-N-hydroxy-acrylamide], the IC50 in assay [1] came out at 380 nM. For the same molecule, halving of growth in the assay with Colo205 cells (GI50) required 2100 nM.
Take `CCCCCCc1nc2cc(/C=C/C(=O)NO)ccn2c1NCCC(=O)N(C)C` [Compound 30, 3-[3-(2-Dimethylcarbamoyl-ethylamino)-2-hexyl-imidazo[1,2-a]pyridin-7-yl]-N-hydroxy-acrylamide]: in assay [1], the half-maximal inhibitory concentration (IC50) came to 880 nM. Besides, the GI50 in the assay with Colo205 cells was found to be 3900 nM.
With `CCCCCCc1nc2cc(/C=C/C(=O)NO)ccn2c1NCCC(=O)N(C)CCN(C)C` [Compound 32, 3-(3-{2-[(2-Dimethylamino-ethyl)-methyl-carbamoyl]-ethylamino}-2-hexyl-imidazo[1,2a]pyridin-7-yl)-N-hydroxy-acrylamide], the IC50 in assay [1] was found to be 240 nM. Besides, it took 2800 nM to inhibit growth with Colo205 cells by half (GI50).
`CCCCCCc1nc2cc(/C=C/C(=O)NO)ccn2c1NCCC(=O)N(CCC)CCO` [Compound 33, 3-(2-Hexyl-3-{2-[(2-hydroxy-ethyl)-propyl-carbamoyl]-ethylamino}-imidazo[1,2-a]pyridin-7-yl)-N-hydroxy-acrylamide]: the IC50 in assay [1] was found to be 830 nM. The same molecule returned a GI50 in the assay on Colo205 cells of 27000 nM.
`O=C(/C=C/c1ccn2cc(-c3ccccc3)nc2c1)NO` [Compound 34, N-Hydroxy-3-(2-phenyl-imidazo[1,2-a]pyridin-7-yl)-acrylamide]: the IC50 in assay [1] amounted to 870 nM. This molecule showed a GI50 in the assay on Colo205 cells of 42000 nM.
As for `CCCCCCc1nc2cc(/C=C/C(=O)NO)ccn2c1NCCC(=O)NCC(C)(C)CN(C)C` [Compound 35, 3-{3-[2-(3-Dimethylamino-2,2-dimethyl-propylcarbamoyl)-ethylamino]-2-hexyl-imidazo[1,2-a]pyridin-7-yl}-N-hydroxy-acrylamide], in assay [1], the IC50 stood at 140 nM. In the assay on Colo205 cells, this molecule displayed a 50% growth inhibitory concentration (GI50) of 9300 nM.
Consider `CCCCCCc1nc2cc(/C=C/C(=O)NO)ccn2c1NCCC(=O)NC` [Compound 36, 3-[2-Hexyl-3-(2-methylcarbamoyl-ethylamino)-imidazo[1,2-a]pyridin-7-yl]-N-hydroxy-acrylamide], for which the IC50 in assay [1] came to 390 nM. This molecule displayed a GI50 in the assay on Colo205 cells of 14000 nM.
For `CCCCCCc1nc2cc(/C=C/C(=O)NO)ccn2c1NCCC(=O)N(C)C(C)C` [Compound 37, 3-{2-Hexyl-3-[2-(isopropyl-methyl-carbamoyl)-ethylamino]-imidazo[1,2-a]pyridin-7-yl}-N-hydroxy-acrylamide], in assay [1], the IC50 worked out at 590 nM. The same molecule registered a GI50 in the assay on Colo205 cells of 5300 nM.
`CCCCCCc1nc2cc(/C=C/C(=O)NO)ccn2c1NCCC(=O)N(CCOC)C(C)C` [Compound 38, 3-(2-Hexyl-3-{2-[isopropyl-(2-methoxy-ethyl)-carbamoyl]-ethylamino}-imidazo[1,2-a]pyridin-7-yl)-N-hydroxy-acrylamide]: the half-maximal inhibitory concentration (IC50) in assay [1] came out at 360 nM. Further, halving of growth in the assay with Colo205 cells (GI50) required 3500 nM.
Taken in the same sequence, the figures for `Cc1cn2ccc(/C=C/C(=O)NO)cc2n1` [Compound 41, N-Hydroxy-3-(2-methyl-imidazo[1,2-a]pyridin-7-yl)-acrylamide] were 1300 nM and 2500 nM.
Taken in the same sequence, the figures for `CCCCNCc1c(C)nc2cc(/C=C/C(=O)NO)ccn12` [Compound 42, 3-(3-Butylaminomethyl-2-methyl-imidazo[1,2-a]pyridin-7-yl)-N-hydroxy-acrylamide] were 160 nM and 1500 nM.
Turning to `CCN(CC)CCNCc1c(C(C)(C)C)nc2cc(/C=C/C(=O)NO)ccn12` [Compound 43, 3-{2-tert-Butyl-3-[(2-diethylamino-ethylamino)-methyl]-imidazo[1,2-a]pyridin-7-yl}-N-hydroxy-acrylamide], in assay [1], the IC50 is 2000 nM. The molecule also had a GI50 in the assay with Colo205 cells of 34000 nM.

For the origin of these results see US8648092B2, “Imidazo[1,2-a]pyridine derivatives: preparation and pharmaceutical applications” (MEI Pharma, priority 2005, dated 2014).
